Assay results published in BindingDB's records for doi:10.1016/j.ejmech.2017.11.032 (International Institute of Molecular and Cell Biology, 2018).

experiment: Competitive inhibition of bacterial C-terminal His6-tagged ErmC' expressed in Escherichia coli BL21(DE3) in presence of [methyl-3H]SAM

| Ki [µM] | SMILES |
| --- | --- |
| 354 | CC(=O)Nc1nc(C)c(-c2csc(Nc3cccc(O)c3)n2)s1 |
| 111 | O=C(c1csc(Nc2ncccn2)n1)N1CCN(c2ccc(C(F)(F)F)cn2)CC1 |

experiment: Non-competitive inhibition of bacterial C-terminal His6-tagged ErmC' (unknown origin) expressed in Escherichia coli BL21(DE3) in presence of [methyl-3H]SAM

| Ki [µM] | SMILES |
| --- | --- |
| 148 | O=C(c1c[nH]c(=O)[nH]1)N1CCN(c2ccc(C(F)(F)F)cn2)CC1 |

experiment: as above; remark: another data set of the same source

| SMILES | IC50 [µM] |
| --- | --- |
| O=C(Nc1cccc(NCc2ccncc2)c1)c1ccccc1Cl | > 500 |
| O=C(Nc1ccn(CCc2ccncc2)n1)Nc1ccc(F)cc1F | 500 |
| Cc1occc1C(=O)Nc1nc(CC(=O)Nc2ccccc2)cs1 | 250 |
| O=C(Cc1cccc(F)c1)Nc1cccc(-c2ccn[nH]2)c1 | 500 |
| O=C(Nc1cccc(NC(=O)c2cccc(F)c2)c1)c1ccncc1 | 250 |
| CN(C)c1ccc(CNC(=O)c2ccc(-n3cncn3)cc2)cc1 | > 500 |
| COc1ccc(C(=O)CSc2nc(O)cc(=O)[nH]2)cc1 | > 500 |

More lines, now with the values ahead:

| IC50 [µM] | SMILES |
| --- | --- |
| > 500 | CC(=O)c1c[nH]c(C(=O)N2CCN(c3ccc(C(F)(F)F)cn3)CC2)c1 |
| > 500 | O=C(c1n[nH]c(=O)[nH]1)N1CCN(c2ccc(C(F)(F)F)cn2)CC1 |
| 500 | O=C(c1cn(-c2ccccc2)nn1)N1CCN(c2ccc(C(F)(F)F)cn2)CC1 |
| > 500 | O=C(c1cnn[nH]1)N1CCN(c2ccc(C(F)(F)F)cn2)CC1 |
| > 500 | O=C(c1cc(C2CC2)n[nH]1)N1CCN(c2ccc(C(F)(F)F)cn2)CC1 |
| > 500 | O=C(Nc1ccncc1)c1ccn(COc2ccc(F)c(Cl)c2)n1 |
| > 500 | O=C(Cc1cn2ccsc2n1)Nc1cccc(N2CCCC2=O)c1 |
| > 250 | O=C(CSc1nnc2c(n1)[nH]c1ccccc12)Nc1ccccn1 |
| 500 | Nn1c(SCc2nc3ccccc3[nH]2)nnc1-c1ccncc1 |

experiment: Inhibition of bacterial C-terminal His6-tagged ErmC' expressed in Escherichia coli ER2566 assessed as decrease in rRNA methylation using [methyl-3H]AdoMet measured after 1 hr

| IC50 [µM] | SMILES |
| --- | --- |
| 250 | COC(=O)c1sc2ccccc2c1OS(=O)(=O)c1ccc(Cl)cc1 |
| 180 | Cc1ccc(Sc2cc(C)c(C#N)c(Sc3ccc(C)cc3)n2)cc1 |
| 300 | O=C1c2ccccc2C(=O)N1CN(CCCn1ccnc1)CN1C(=O)c2ccccc2C1=O |
| 250 | Clc1ccccc1Cn1nnc2c(N/N=C/c3cccnc3)ncnc21 |

experiment: Inhibition of bacterial C-terminal His6-tagged ErmC' (unknown origin) expressed in Escherichia coli BL21(DE3) assessed as decrease in rRNA methylation using [methyl-3H]AdoMet measured after 1 hr

| SMILES | IC50 [µM] |
| --- | --- |
| CC(=O)Nc1nc(C)c(-c2csc(Nc3cccc(O)c3)n2)s1 | 299 |
| Nc1nc(N)nc(CSc2nnc(NCc3ccccc3)s2)n1 | > 500 |
| O=C(Nc1nccs1)c1cc(-c2ccccn2)nc2ccccc12 | > 250 |
| O=C(NCCSc1ccccc1)c1ccc(-n2cncn2)cc1 | 250 |
| O=C(CSc1nc2cccnc2[nH]1)Nc1nccs1 | > 500 |
| CC(=O)Nc1ccc(S(=O)(=O)NCCc2ccncc2)cc1 | 500 |

Now from value to molecule:

| IC50 [µM] | SMILES |
| --- | --- |
| 110 | O=C(c1csc(Nc2ncccn2)n1)N1CCN(c2ccc(C(F)(F)F)cn2)CC1 |
| 100 | O=C(c1c[nH]c(=O)[nH]1)N1CCN(c2ccc(C(F)(F)F)cn2)CC1 |
| 116 | Cc1cccc(Nc2nc(C(=O)N3CCN(c4ccc(C(F)(F)F)cn4)CC3)cs2)n1 |
| 500 | O=C(NCc1cccc(Cn2ccnc2)c1)c1cc2ccccc2o1 |
| 500 | Cn1cnnc1-c1cccc(NC(=O)Cc2cccc(F)c2)c1 |
| 500 | O=C(NCCOc1ccc2c(c1)OCO2)c1ccc2ccccc2n1 |
| 250 | CCCc1cc(C(=O)Nc2cccc(OCc3ccncc3)c2)[nH]n1 |
| > 500 | O=C(NC1CCN(c2nc3ccccc3s2)CC1)c1ccncc1 |
| > 500 | O=C(c1cc(Cl)c[nH]1)N1CCN(c2ncc(C(F)(F)F)cc2Cl)CC1 |
| > 500 | FC(F)(F)c1ccc(N2CCN(Cc3c[nH]c(-c4ccccc4)n3)CC2)nc1 |
| > 500 | FC(F)(F)c1ccc(N2CCN(Cc3cn4ccccc4n3)CC2)nc1 |

experiment: Inhibition of bacterial ErmC' assessed as decrease in rRNA methylation preincubated for 15 mins followed by S-adenosyl-L-[methyl3H]methionine addition measured after 2 hrs by scintillation counting method

| IC50 [µM] | SMILES |
| --- | --- |
| 18 | Cc1nccc(C(=O)Nc2cc(NC(=O)c3ccccc3)ccc2C)n1 |

experiment: Inhibition of bacterial C-terminal His6-tagged ErmC' expressed in Escherichia coli BL21(DE3) assessed as decrease of protein binding to [gamma-33P]ATP-labeled 32-nt oligonucleotide after 30 mins by filter binding assay

| Kd [µM] | SMILES |
| --- | --- |
| 0.04 | O=C(c1csc(Nc2ncccn2)n1)N1CCN(c2ccc(C(F)(F)F)cn2)CC1 |
| 1.04 | Cc1cccc(Nc2nc(C(=O)N3CCN(c4ccc(C(F)(F)F)cn4)CC3)cs2)n1 |
